Laboratory results: article PMC6130489, “Caffeic acid methyl and ethyl esters exert potential antidiabetic effects on glucose and lipid metabolism in cultured murine insulin-sensitive cells through mechanisms implicating activation of AMPK” (Pharmaceutical Biology, 2017)
Values joined by “and” are separate entries in the source; they are usually repeats but may differ in a detail not shown here. Equal entries are not always repeated.

Assays:
GLUT4 = test: Western immunoblot GLUT4 protein content in L6 myotubes; format: cell-based, rat; conditions: 50 μM, 18 h, GLUT4/β-actin
Protocol: (§1) L6 cells myotubes, H4IIE cells and 3T3-L1 adipocytes were treated with either CAME, CAEE (50 μM each) or vehicle (DMSO) for 18 h. Insulin (100 nM) or aminoimidazole carboxamide ribonucleotide (AICAR; 1 mM) were added to some vehicle-treated wells 30 min prior to the end of the treatment and served as the positives controls. Protein content was assayed by the bicinchoninic acid method (Thermo Scientific Pierce Protein Research, Rockford, IL) standardized to bovine serum albumin. Western immunoblotting was performed as described elsewhere (Eid et al. [2010]). […] Immunoreactive bands were visualized by enhanced chemiluminescence and quantified by the Scion Image program (Scion Corporation, Frederick, MD). […]
(§2) Figure 1. […] Cells were treated as previously described, cell surface GLUT4myc was detected by an enzyme-linked colorimetric assay. […] Results represent the means ± SEM of three independent experiments, and 3-4 cells were analyzed for each condition per experiment. *Indicates a significant (p ≤ 0.05) difference, **(p < 0.01) from the vehicle control group as assessed by ANOVA. […] Data are expressed as (D) phospho-AMPK/β-actin, (E) GLUT4/β-actin and (F) GLUT1/β-actin and are given as mean ± SEM from 3 experiments. *p < 0.05 indicates a significant difference, **(p < 0.01) from the vehicle control group.

GLUT4myc = test: Cell surface GLUT4myc (GLUT4 translocation), OPD assay; format: cell-based, rat; conditions: 50 μM, 18 h; L6-GLUT4myc
Protocol: L6-GLUT4myc myotubes grown in 24-well plates were serum-starved for 4 h and were incubated with either CAME or CAEE (50 μM) for 18 h or insulin (100 nM) for 15 min. Cell-surface GLUT4myc levels were measured by an antibody-coupled colorimetric assay (Niu et al. [2003]) using O-phenylenediamine dihydrochloride (OPD) reagent (1 mL/well) (Sigma-Aldrich, St. Louis, MO), an anti-c-myc antibody (1:200 dilution; Santa Cruz Biotechnology, Santa Cruz, CA) and horseradish peroxidase (HRP)-conjugated goat anti-rabbit IgG at 4 °C (1:1000 dilution; Cell Signaling Technologies, Danvers, MA).
Figure 1. (A) CAME and CAEE increase ^3H-deoxyglucose uptake in L6 GLUT4myc myotubes. Cells were treated with 50 μM of either CAME, CAEE, or with vehicle (0.1% DMSO) for 18 h. 100 nM insulin served as the positive control and was applied for the last 15 min of the treatment in vehicle-treated cells. Glucose uptake was performed as described in Materials and Methods section. (B) CAME and CAEE stimulate GLUT4 translocation in L6 GLUT4myc myotubes. Cells were treated as previously described, cell surface GLUT4myc was detected by an enzyme-linked colorimetric assay. By the end of the treatment, L6- GLUT4myc cells were labeled with anti-c-myc antibody as described in Materials and Methods section. Results represent the means ± SEM of three independent experiments, and 3-4 cells were analyzed for each condition per experiment. *Indicates a significant (p ≤ 0.05) difference, **(p < 0.01) from the vehicle control group as assessed by ANOVA. […] L6 myotubes treated with CAME or CAEE (50 μM each), DMSO (0.1%) for 18 h. Insulin (100 nM) and AICAR (2 mM) both applied for 30 min and served as positive controls. Immunoblots were probed with anti phospho-AMPK (Thr 172), anti-GLUT4, anti-GLUT1 and anti-phospho-Akt (Ser 473) antibodies as described in Materials and Methods section. […] Data are expressed as (D) phospho-AMPK/β-actin, (E) GLUT4/β-actin and (F) GLUT1/β-actin and are given as mean ± SEM from 3 experiments. *p < 0.05 indicates a significant difference, **(p < 0.01) from the vehicle control group.

AMPK = test: Western immunoblot phospho-AMPK in L6 myotubes; format: cell-based, rat; conditions: 50 μM, 18 h, phospho-AMPK/β-actin
Protocol: L6 cells myotubes, H4IIE cells and 3T3-L1 adipocytes were treated with either CAME, CAEE (50 μM each) or vehicle (DMSO) for 18 h. Insulin (100 nM) or aminoimidazole carboxamide ribonucleotide (AICAR; 1 mM) were added to some vehicle-treated wells 30 min prior to the end of the treatment and served as the positives controls. Protein content was assayed by the bicinchoninic acid method (Thermo Scientific Pierce Protein Research, Rockford, IL) standardized to bovine serum albumin. Western immunoblotting was performed as described elsewhere (Eid et al. [2010]). Membranes were incubated overnight with phospho-AMPK, phospho-Akt, GLUT4, GLUT1 and β-actin antibodies (1:1000 dilution, Cell Signalling Technology, Danvers, MA), or with PPAR-γ, SREBP-1 (1:200, Santa Cruze Biotechnology, Santa Cruz, CA), followed by incubation with HRP-coupled secondary antibody (1:10,000) for 1 h. Immunoreactive bands were visualized by enhanced chemiluminescence and quantified by the Scion Image program (Scion Corporation, Frederick, MD). Experiments were repeated on 3 different passages of cells, each passage containing all conditions in parallel.
Figure 1. (A) CAME and CAEE increase ^3H-deoxyglucose uptake in L6 GLUT4myc myotubes. Cells were treated with 50 μM of either CAME, CAEE, or with vehicle (0.1% DMSO) for 18 h. 100 nM insulin served as the positive control and was applied for the last 15 min of the treatment in vehicle-treated cells. Glucose uptake was performed as described in Materials and Methods section. […] Cells were treated as previously described, cell surface GLUT4myc was detected by an enzyme-linked colorimetric assay. […] Results represent the means ± SEM of three independent experiments, and 3-4 cells were analyzed for each condition per experiment. *Indicates a significant (p ≤ 0.05) difference, **(p < 0.01) from the vehicle control group as assessed by ANOVA. […] Data are expressed as (D) phospho-AMPK/β-actin, (E) GLUT4/β-actin and (F) GLUT1/β-actin and are given as mean ± SEM from 3 experiments. *p < 0.05 indicates a significant difference, **(p < 0.01) from the vehicle control group.

L6 GLUT4myc myotubes = test: 3H-Deoxyglucose uptake assay; format: cell-based, rat; conditions: 50 μM, 18 h; for 2-deoxyglucose uptake rate: basal (DMSO) 10.1 ± 0.5
Protocol: Measurement of glucose uptake was performed as previously described (Eid et al. [2010]) using [^3H]-2-deoxyglucose (TRK-383, Amersham Biosciences, Buckinghamshire, UK). Nonspecific uptake was measured in the presence of cytochalasin B (10 μM) and was subtracted from all values.
Figure 1. (A) CAME and CAEE increase ^3H-deoxyglucose uptake in L6 GLUT4myc myotubes. Cells were treated with 50 μM of either CAME, CAEE, or with vehicle (0.1% DMSO) for 18 h. 100 nM insulin served as the positive control and was applied for the last 15 min of the treatment in vehicle-treated cells. Glucose uptake was performed as described in Materials and Methods section. (B) CAME and CAEE stimulate GLUT4 translocation in L6 GLUT4myc myotubes. Cells were treated as previously described, cell surface GLUT4myc was detected by an enzyme-linked colorimetric assay. By the end of the treatment, L6- GLUT4myc cells were labeled with anti-c-myc antibody as described in Materials and Methods section. Results represent the means ± SEM of three independent experiments, and 3-4 cells were analyzed for each condition per experiment. *Indicates a significant (p ≤ 0.05) difference, **(p < 0.01) from the vehicle control group as assessed by ANOVA. […] L6 myotubes treated with CAME or CAEE (50 μM each), DMSO (0.1%) for 18 h. Insulin (100 nM) and AICAR (2 mM) both applied for 30 min and served as positive controls. Immunoblots were probed with anti phospho-AMPK (Thr 172), anti-GLUT4, anti-GLUT1 and anti-phospho-Akt (Ser 473) antibodies as described in Materials and Methods section. Anti-β-actin antibody was used as a loading control. Representative blots are shown in panel C. Data are expressed as (D) phospho-AMPK/β-actin, (E) GLUT4/β-actin and (F) GLUT1/β-actin and are given as mean ± SEM from 3 experiments. *p < 0.05 indicates a significant difference, **(p < 0.01) from the vehicle control group.

3T3-L1 cells = test: LDH cytotoxicity assay; format: cell-based; conditions: 16-18 h, concentration inducing less than 10% cell death
Protocol: (§3) To determine nontoxic concentrations, cells were treated overnight (16–18 h) with 0.1% DMSO or different concentrations of either CAME or CAEE (12.5, 25, 50 and 100 μM). Cell culture media were collected separately and kept on ice. The cells were rinsed with PBS then lysed with 1% Triton X-100 in culture media for 10 min and the lysate were centrifuged at 4 °C for 10 min at 250g. Lactate dehydrogenase (LDH) activity in medium and in lysates was assayed with the LDH-Cytotoxicity Assay Kit II (BioVision, Mountain View, CA) according to the manufacturer's protocol (Smith et al. [2011]). LDH activity was expressed as the ratio of released LDH (medium) to total (medium + lysate) LDH activity.
(§4) Similar to our previous study in C2C12 cells, the maximum nontoxic concentrations of CAME and CAEE were determined using a LDH assay kit. Concentrations that induced less than 10% cell death were chosen as the maximum nontoxic concentrations (Table 1).

H4IIE cells = test: LDH cytotoxicity assay; format: cell-based; conditions: 16-18 h, concentration inducing less than 10% cell death
Protocol: as §3, §4

L6 GLUT4myc cells = test: LDH cytotoxicity assay; format: cell-based; conditions: 16-18 h, concentration inducing less than 10% cell death
Protocol: as §3, §4

Akt = test: Western immunoblot phospho-Akt in L6 myotubes; format: cell-based, rat; conditions: 50 μM, 18 h
Protocol: as §1, §2

COC(=O)/C=C/c1ccc(O)c(O)c1 [CAME, CA methyl ester]
GLUT4 content, fold compared to DMSO (GLUT4): ~2.7 fold | GLUT4 translocation, fold relative to DMSO (GLUT4myc): 1.73 ± 0.18 fold and 1.79 ± 0.18 fold | AMPK phosphorylation, fold increase over DMSO (AMPK): 13 fold | glucose uptake, percent of DMSO control (L6 GLUT4myc myotubes): 184 ± 16% | 2-deoxyglucose uptake rate (L6 GLUT4myc myotubes): 18.7 ± 0.8 pmol/min/mg protein | Maximum non-toxic concentration (3T3-L1 cells): 100 µM | Maximum non-toxic concentration (H4IIE cells): 100 µM | Maximum non-toxic concentration (L6 GLUT4myc cells): 50 µM | effect on Akt (phospho-Akt) (Akt): no effect

CCOC(=O)/C=C/c1ccc(O)c(O)c1 [CAEE, caffeic acid ethyl ester]
GLUT4 content, fold compared to DMSO (GLUT4): ~3.2 fold | GLUT4 translocation, fold relative to DMSO (GLUT4myc): 1.95 ± 0.30 fold | AMPK phosphorylation, fold increase over DMSO (AMPK): 11 fold | glucose uptake, percent of DMSO control (L6 GLUT4myc myotubes): 216 ± 19% | 2-deoxyglucose uptake rate (L6 GLUT4myc myotubes): 21.9 ± 1.0 pmol/min/mg protein | Maximum non-toxic concentration (3T3-L1 cells): 100 µM | Maximum non-toxic concentration (H4IIE cells): 50 µM | Maximum non-toxic concentration (L6 GLUT4myc cells): 50 µM | effect on Akt (phospho-Akt) (Akt): no effect
